Consider three molecules from PMC4019636, “Rational Design of Berberine-Based FtsZ Inhibitors with Broad-Spectrum Antibacterial Activity” (PLoS ONE, 2014).

For assay [1], the system named is K. pneumoniae ATCC BAA-1144. As to the kind of experiment: Antimicrobial susceptibility assay (broth microdilution MIC). Type of assay: cell-based. As to conditions: Klebsiella pneumoniae. From the text:
(§1) The bacterial strains S. aureus ATCC 29213, S. aureus ATCC 29247, S. aureus ATCC BAA-41, E. faecium ATCC 49624, E. faecium ATCC 700221, E. faecalis ATCC 29212, S. epidermidis ATCC 12228, E. coli ATCC 25922, and K. pneumoniae ATCC BAA-1144 used in the antimicrobial susceptibility assays were purchased from American Type Culture Collection (ATCC, USA). B. subtilis strain 168 was already available in our in-house collection. E. coli JM109 WM647 was kindly provided by Dr. W. Margolin (University of Texas-Houston Medical School). FM 4–64 was purchased from Invitrogen (Eugene, Oregon). All other chemicals and reagents were purchased from Sigma-Aldrich. Stock solutions were prepared in DMSO. The final percentage of DMSO in the assays was 1% (v/v) for all experiments.
(§2) Antimicrobial susceptibility tests were conducted in 96-well microplates using the broth microdilution procedure described in the Clinical and Laboratory Standards Institute (CLSI) guidelines. Cation-adjusted Mueller Hinton broth for S. aureus strain ATCC 29213, methicillin-resistant S. aureus strain ATCC BAA-41 and ampicillin-resistant S. aureus strain ATCC 29247, or brain heart infusion broth for antibiotic-susceptible E. faecium strain ATCC 49624 and vancomycin-resistant E. faecium strain ATCC 700221, or Mueller Hinton broth for antibiotic-susceptible strains B. subtilis strain 168, E. faecalis strain ATCC 29212 and E. coli strain ATCC 25922 were used in the assays. After incubation for 18 h at 37°C, the absorbance at 600 nm (A600) was recorded using a microplate reader (Bio-Rad laboratory Ltd., UK) and the percentage of bacterial cell inhibition with respect to vehicles (1% DMSO) was calculated. The MIC was defined as the lowest compound concentration at which the growth of bacteria was inhibited by ≥90%. Three independent assays were performed for each test.
(In broth dilution the organism is exposed to a series of concentrations in liquid medium.)

Assay [2] concerns S. epidermidis ATCC 12228. Described as above. Type of assay: cell-based. The conditions noted are these: Staphylococcus epidermidis.
Description: as §1, §2

The next assay deals with E. coli ATCC 25922. The assay is described as above. Type of assay: cell-based. As to conditions: Escherichia coli.
Description: as §1, §2

The next assay deals with S. aureus ATCC BAA-41. The description is as above. Type of assay: cell-based. As to conditions: Staphylococcus aureus.
Description: as §1, §2

The next assay has as its system B. subtilis 168. The assay is described as above. Type of assay: cell-based.
Description: as §1, §2

A further assay deals with S. aureus ATCC 29213. The description is as above. As to conditions: Staphylococcus aureus. Type of assay: cell-based.
Description: as §1, §2

The subject of a further assay is E. faecalis ATCC 29212. The assay is described as above. Type of assay: cell-based. The conditions noted are these: Enterococcus faecalis.
Description: as §1, §2

For another assay, the system named is S. aureus ATCC 29247. The description is as above. Type of assay: cell-based. The conditions noted are these: Staphylococcus aureus.
Description: as §1, §2

In a further assay the target is T1, S. aureus FtsZ (Staphylococcus aureus, UniProt P0A031).
T1 construct: made in house; host or cells: E. coli BL21(DE3)
T1 sequence (P0A031 1-390): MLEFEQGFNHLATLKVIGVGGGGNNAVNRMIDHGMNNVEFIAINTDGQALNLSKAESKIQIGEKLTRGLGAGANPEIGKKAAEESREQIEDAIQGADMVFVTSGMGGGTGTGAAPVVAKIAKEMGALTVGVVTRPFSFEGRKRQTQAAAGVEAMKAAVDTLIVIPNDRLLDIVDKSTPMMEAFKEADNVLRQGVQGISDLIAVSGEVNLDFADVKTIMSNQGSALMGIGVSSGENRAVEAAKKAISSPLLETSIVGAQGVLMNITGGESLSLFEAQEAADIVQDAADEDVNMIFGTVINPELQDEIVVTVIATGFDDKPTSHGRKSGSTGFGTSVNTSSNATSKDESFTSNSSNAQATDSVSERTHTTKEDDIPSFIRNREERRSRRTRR
As to the kind of experiment: Light scattering assay of FtsZ polymerization. Type of assay: biochemical. The conditions noted are these: 1 mM compound; negative control. How it is done: E. coli BL21(DE3) cells were transformed with the pRSET-A-S vector carrying S. aureus FtsZ with a 6-histidine tag attached at its N-terminus under the control of a T7 promoter. […] When the OD600 reached 0.8, protein expression was induced with 0.4 mM isopropyl-β-D-thiogalactopyranoside (IPTG) for 4 h. Cells were harvested by centrifugation at 9000 rpm for 20 min at 4°C. The cell pellet was resuspended in 20 mL of solubilization buffer (50 mM Tris-HCl, 150 mM NaCl, 1 mM PMSF and 1 mM EDTA, pH 7.4) and then lysed with 1 mg/mL of lysozyme. The mixture was incubated for 1 h on ice. The cells were disrupted by sonication and the crude lysate obtained was centrifuged at 13,000 rpm for 1 h at 4°C. The supernatant containing 6-histidine tagged S. aureus FtsZ was collected and loaded onto a nickel charged HiTrap chelating column pre-equilibrated with starting buffer (20 mM sodium phosphate buffer, 0.5 M NaCl, pH 7.4). The column was then washed with 8 column volumes of the starting buffer to remove the unbound proteins, and the histidine-tagged enzyme was eluted by a linear gradient of 0−0.2 M imidazole. Fractions containing S. aureus FtsZ were pooled, buffer-exchanged with 20 mM NH4HCO3 (pH 8.0) at 4°C, lyophilized, and stored at −20°C. A stock solution of S. aureus FtsZ for the subsequent bioassay was prepared from the lyophilized powder.
The light scattering assay was performed using a protocol adapted from the literature. The polymerization and depolymerization of recombinant S. aureus FtsZ was measured using 90° light scattering in a thermostatically (37°C) controlled fluorescence spectrometer (Perkin Elmer, USA). Both excitation and emission wavelengths were set to 600 nm with a slit width of 2.5 nm. S. aureus FtsZ (6 µM) in 50 mM of MOPS buffer (pH 6.5) was incubated with vehicle (1% DMSO) or different concentrations of the test compound for 10 min at 25°C. 50 mM KCl and 10 mM MgCl2 were then added to establish a baseline. After 8 min, a final concentration of 1 mM GTP was added at the last fraction and the increase in light scattering was measured for an additional 2000s. The rate and extent of polymerization were measured. Appropriate blanks were subtracted from all experimental data. Moreover, in order to rule out unselective inhibition by formation of aggregates, control experiments with 0.01% (v/v) Triton X-100 from a freshly prepared 1% (v/v) stock solution were performed for berberine and compound 2 [40], [41]. Reported results are the average of three independent experiments.

The test system of the next assay is E. faecium ATCC 49624. As to the kind of experiment: Antimicrobial susceptibility assay (broth microdilution MIC). Type of assay: cell-based. The conditions noted are these: Enterococcus faecium.
Description: as §1
(§3) Antimicrobial susceptibility tests were conducted in 96-well microplates using the broth microdilution procedure described in the Clinical and Laboratory Standards Institute (CLSI) guidelines. […] After incubation for 18 h at 37°C, the absorbance at 600 nm (A600) was recorded using a microplate reader (Bio-Rad laboratory Ltd., UK) and the percentage of bacterial cell inhibition with respect to vehicles (1% DMSO) was calculated. The MIC was defined as the lowest compound concentration at which the growth of bacteria was inhibited by ≥90%. Three independent assays were performed for each test.

A further assay concerns E. faecium ATCC 700221. The description is as above. Type of assay: cell-based. The conditions noted are these: Enterococcus faecium.
Description: as §1, §3

[3] abbreviates: ATCCBAA1144, K. pneumoniae ATCC BAA-1144 (Gram-negative, expressing AmpC β-lactamase), 18 h at 37°C, growth inhibited by ≥90%, read-out: MIC.
Where [4] appears, read: ATCC12228, S. epidermidis ATCC 12228, 18 h at 37°C, growth inhibited by ≥90%, read-out: MIC.
Setting [5] is: ATCC25922, E. coli ATCC 25922, Mueller Hinton broth, 18 h at 37°C, growth inhibited by ≥90%, read-out: MIC.
Where [6] appears, read: ATCCBAA41, S. aureus ATCC BAA-41 (methicillin-resistant), 18 h at 37°C, growth inhibited by ≥90%, read-out: MIC.
[7] abbreviates: Bacillus subtilis, B. subtilis 168, Mueller Hinton broth, 18 h at 37°C, growth inhibited by ≥90%, read-out: MIC.
Setting [8] is: ATCC29213, S. aureus ATCC 29213, cation-adjusted Mueller Hinton broth, 18 h at 37°C, growth inhibited by ≥90%, read-out: MIC.
Where [9] appears, read: ATCC29212, E. faecalis ATCC 29212, Mueller Hinton broth, 18 h at 37°C, growth inhibited by ≥90%, read-out: MIC.
Where [10] appears, read: ATCC29247, S. aureus ATCC 29247 (ampicillin-resistant), 18 h at 37°C, growth inhibited by ≥90%, read-out: MIC.

Converted amounts (≈) assume the structure as drawn. Where two headings read alike, the source gives them in different places.

One may read the MIC as the smallest concentration in the dilution series that meets the test's criterion for growth inhibition.

On to `CC1(C)S[C@@H]2[C@H](NC(=O)[C@H](N)c3ccccc3)C(=O)N2[C@H]1C(=O)O` [Ampicillin, reference compound], for which the MIC in assay [1] (setting [3]) is more than 96 µg/mL; in [2] (setting [4]), 3 µg/mL (≈ 8.59 µM); in the assay with E. coli ATCC 25922 (setting [5]) it was 6 µg/mL (≈ 17.2 µM); in the assay with S. aureus ATCC BAA-41 (setting [6]), more than 96 µg/mL; with B. subtilis 168 (setting [7]) it was 0.1 µg/mL (≈ 0.286 µM); in the assay with S. aureus ATCC 29213 (setting [8]), 1.5 µg/mL (≈ 4.29 µM). Also, the values for the MIC in the assay on E. faecalis ATCC 29212 (setting [9]) and with S. aureus ATCC 29247 (setting [10]) were 6 µg/mL (≈ 17.2 µM) and 48 µg/mL (≈ 137 µM), respectively. In addition, the “effect on the polymerization of S. aureus FtsZ” value at S. aureus FtsZ is listed as “no effect”.
Consider `CN[C@H](CC(C)C)C(=O)N[C@H]1C(=O)N[C@@H](CC(N)=O)C(=O)N[C@H]2C(=O)N[C@H]3C(=O)N[C@H](C(=O)N[C@H](C(=O)O)c4cc(O)cc(O)c4-c4cc3ccc4O)[C@H](O)c3ccc(c(Cl)c3)Oc3cc2cc(c3O[C@@H]2O[C@H](CO)[C@@H](O)[C@H](O)[C@H]2O[C@H]2C[C@](C)(N)[C@H](O)[C@H](C)O2)Oc2ccc(cc2Cl)[C@H]1O` [Vancomycin, vancomycin, reference compound], for which the MIC in assay [1] (ATCCBAA1144, 18 h) turned out to be 6 µg/mL (≈ 4.14 µM); in [2] (ATCC12228, 18 h) it was 1 µg/mL (≈ 0.69 µM); in the assay with E. coli ATCC 25922 (ATCC25922, 18 h), 2 µg/mL (≈ 1.38 µM); in the assay with S. aureus ATCC BAA-41 (ATCCBAA41, 18 h), 2 µg/mL (≈ 1.38 µM); with B. subtilis 168 (Bacillus subtilis, 168, 18 h) it was 1 µg/mL (≈ 0.69 µM); against S. aureus ATCC 29213 (ATCC29213, 18 h), 1 µg/mL (≈ 0.69 µM). Further, the MIC against E. faecalis ATCC 29212 (ATCC29212, 18 h) was 1 µg/mL (≈ 0.69 µM); against S. aureus ATCC 29247 (ATCC29247, 18 h) it was 1 µg/mL (≈ 0.69 µM); against E. faecium ATCC 49624 (ATCC49624, 18 h), 1 µg/mL (≈ 0.69 µM); against E. faecium ATCC 700221 (ATCC700221, 18 h), more than 96 µg/mL.
Take `COc1ccc2cc3[n+](cc2c1OCCCBr)CCc1cc2c(cc1-3)OCO2` [Compound 7]: the MIC is more than 384 µg/mL in assay [1] (setting [3]); 112 µg/mL in assay [2] (setting [4]); 384 µg/mL in the assay on E. coli ATCC 25922 (setting [5]); 196 µg/mL in the assay with S. aureus ATCC BAA-41 (setting [6]); 112 µg/mL in the assay with B. subtilis 168 (setting [7]); 112 µg/mL in the assay with S. aureus ATCC 29213 (setting [8]). Moreover, the MIC in the assay with E. faecalis ATCC 29212 (setting [9]) is more than 196 µg/mL; with S. aureus ATCC 29247 (setting [10]), 112 µg/mL; in the assay with E. faecium ATCC 49624 (ATCC49624, E. faecium ATCC 49624, brain heart infusion broth, 18 h at 37°C, growth inhibited by ≥90%, read-out: MIC), more than 196 µg/mL; with E. faecium ATCC 700221 (ATCC700221, E. faecium ATCC 700221 (vancomycin-resistant), brain heart infusion broth, 18 h at 37°C, growth inhibited by ≥90%, read-out: MIC), more than 196 µg/mL.
